According to patent publication US6534542B2, “(2-hydroxy)ethyl-thioureas useful as modulators of α2B adrenergic receptors” (Allergen Sales, Inc., priority 2001, dated 2003):

target: T1, alpha2B receptor (Homo sapiens, UniProt P18089); assay: Receptor Selection and Amplification Technology (RSAT) assay, alpha2B; assay type: cell-based; settings: NIH-3T3 cells; NA = not active at concentrations less than 10 micromolar; read-out: RSAT EC50 (nM) Alpha 2B
T1 construct: expressed in transfected cells; host or cells: NIH-3T3
T1 sequence (P18089 1-450): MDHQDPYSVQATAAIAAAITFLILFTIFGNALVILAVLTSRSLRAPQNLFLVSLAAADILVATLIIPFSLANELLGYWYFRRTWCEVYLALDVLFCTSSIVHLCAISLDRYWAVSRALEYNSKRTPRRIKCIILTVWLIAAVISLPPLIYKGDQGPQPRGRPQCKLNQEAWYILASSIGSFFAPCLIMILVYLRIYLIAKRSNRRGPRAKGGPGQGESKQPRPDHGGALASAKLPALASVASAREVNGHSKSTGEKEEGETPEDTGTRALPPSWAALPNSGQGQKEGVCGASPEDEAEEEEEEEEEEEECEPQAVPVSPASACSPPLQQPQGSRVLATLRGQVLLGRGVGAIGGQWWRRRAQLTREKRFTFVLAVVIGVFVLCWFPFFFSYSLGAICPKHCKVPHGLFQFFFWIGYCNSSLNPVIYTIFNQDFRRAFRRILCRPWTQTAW
Source text: (§1) The compounds of the invention are agonists of α2 adrenergic receptors, particularly they tend to be specific or selective agonists of α2B and/or to a lesser extent α2C adrenergic receptors, in preference over α2A adrenergic receptors. […] Al., 1995, Pharmacol. Toxicol. 76, pp. 308-311 (incorporated herein by reference) and is also described below. Another reference pertinent to this assay is Conklin et al. (1993) Nature 363:274-6, also incorporated herein by reference.
(§2) The RSAT assay measures a receptor-mediated loss of contact inhibition that results in selective proliferation of receptor-containing cells in a mixed population of confluent cells. The increase in cell number is assessed with an appropriate transfected marker gene such as β-galactosidase, the activity of which can be easily measured in a 96-well format. Receptors that activate the G protein, Gq, elicit this response. Alpha2 receptors, which normally couple to Gi, activate the RSAT response when coexpressed with a hybrid Gq protein that has a Gi receptor recognition domain, called Gq/i5^2.
(§3) NIH-3T3 cells are plated at a density of 2×10^6 cells in 15 cm dishes and maintained in Dulbecco's modified Eagle's medium supplemented with 10% calf serum. One day later, cells are cotransfected by calcium phosphate precipitation with mammalian expression plasmids encoding p-SV-β-galactosidase (5-10 μg), receptor (1-2 μg) and G protein (1-2 μg). 40 μg salmon sperm DNA may also be included in the transfection mixture. Fresh media is added on the following day and 1-2 days later, cells are harvested and frozen in 50 assay aliquots. Cells are thawed and 100 μl added to 100 μl aliquots of various concentrations of drugs in triplicate in 96-well dishes. Incubations continue 72-96 hr at 37°. After washing with phosphate-buffered saline, β-galactosidase enzyme activity is determined by adding 200 μl of the chromogenic substrate (consisting of 3.5 mM o-nitrophenyl-β-D-galactopyranoside and 0.5% nonidet P-40 in phosphate buffered saline), incubating overnight at 30 and measuring optical density at 420 nm. The absorbance is a measure of enzyme activity, which depends on cell number and reflects a receptor-mediated cell proliferation. The EC50 and maximal effect of each drug at each alpha2 receptor is determined. The efficacy or intrinsic activity is calculated as a ratio of the maximal effect of the drug to the maximal effect of a standard full agonist for each receptor subtype. Brimonidine, also called […], the chemical structure of which is shown below, is used as the standard agonist for the alpha2A, alpha2B and alpha2C receptors. [drawing 6]
(§4) The results of the RSAT assay with several exemplary compounds of the invention are disclosed in Table 3. […] NA stands for “not active” at concentrations less than 10 micromolar. As is known EC50 is the concentration at which half of a given compound's maximal activity is observed. It can be seen from the table that the compounds of the invention are specific or selective agonists of α2B and/or α2C adrenergic receptors, with no agonist like activity or only with insignificant agonist-like activity on α2A receptors.

Row | EC50 | SMILES
1 | 97 nM | CC1=CCCC1NC(=S)NCCO (centres unmarked) [Compound 14, 1-(2-Hydroxy-ethyl)-3-(2-methyl-cyclopent-2-enyl)-thiourea]
2 | 11 nM | CCC1=CCCCC1NC(=S)NCCO (centres unmarked) [Compound 34, 1-(2-Hydroxy-ethyl)-3-(2-ethyl-cyclohex-2-enyl)-thiourea]
3 | 135 nM | CC1=C(CNC(=S)NCCO)CCC1 [Compound 27, 1-(2-Methyl-cyclopent-1-enylmethyl)-3-(2-hydroxy-ethyl)-thiourea]
4 | 6 nM | CC1=C(C)C(NC(=S)NCCO)CCC1 (centres unmarked) [Compound 31, 1-(2,3-Dimethyl-cyclohex-2-enyl)-3-(2-hydroxy-ethyl)-thiourea]

same assay, conditions: NIH-3T3 cells; ratio of maximal effect to that of standard full agonist brimonidine

Row | fraction of activity of the standard (brimonidine) attained, Alpha 2B (number in parenthesis) | SMILES
5 | (0.95) | CC1=CCCC1NC(=S)NCCO (centres unmarked) [Compound 14, 1-(2-Hydroxy-ethyl)-3-(2-methyl-cyclopent-2-enyl)-thiourea]
6 | (0.88) | CCC1=CCCCC1NC(=S)NCCO (centres unmarked) [Compound 34, 1-(2-Hydroxy-ethyl)-3-(2-ethyl-cyclohex-2-enyl)-thiourea]
7 | (0.75) | CC1=C(CNC(=S)NCCO)CCC1 [Compound 27, 1-(2-Methyl-cyclopent-1-enylmethyl)-3-(2-hydroxy-ethyl)-thiourea]
8 | (0.8) | CC1=C(C)C(NC(=S)NCCO)CCC1 (centres unmarked) [Compound 31, 1-(2,3-Dimethyl-cyclohex-2-enyl)-3-(2-hydroxy-ethyl)-thiourea]

target: T2, alpha2C receptor (Homo sapiens, UniProt P18825); assay: Receptor Selection and Amplification Technology (RSAT) assay, alpha2C; assay type: cell-based; settings: NIH-3T3 cells; NA = not active at concentrations less than 10 micromolar; read-out: RSAT EC50 (nM) Alpha 2C
T2 construct: expressed in transfected cells; host or cells: NIH-3T3
T2 sequence (P18825 1-462): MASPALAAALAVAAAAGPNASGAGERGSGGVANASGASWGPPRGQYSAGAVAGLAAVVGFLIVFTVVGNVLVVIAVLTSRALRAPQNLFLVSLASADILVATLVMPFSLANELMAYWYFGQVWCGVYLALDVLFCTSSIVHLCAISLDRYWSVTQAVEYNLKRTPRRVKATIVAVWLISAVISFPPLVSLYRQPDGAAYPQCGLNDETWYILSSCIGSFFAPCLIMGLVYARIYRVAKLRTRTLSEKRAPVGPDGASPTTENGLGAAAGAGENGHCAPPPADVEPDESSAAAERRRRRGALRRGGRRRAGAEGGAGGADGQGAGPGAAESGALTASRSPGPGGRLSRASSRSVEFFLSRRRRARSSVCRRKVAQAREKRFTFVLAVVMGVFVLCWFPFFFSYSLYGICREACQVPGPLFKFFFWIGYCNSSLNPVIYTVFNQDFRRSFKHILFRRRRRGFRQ
Source text: as §1, §2, §3, §4

Row | EC50 | SMILES
9 | 3000 nM | CC1=CCCC1NC(=S)NCCO (centres unmarked) [Compound 14, 1-(2-Hydroxy-ethyl)-3-(2-methyl-cyclopent-2-enyl)-thiourea]
10 | 59 nM | CCC1=CCCCC1NC(=S)NCCO (centres unmarked) [Compound 34, 1-(2-Hydroxy-ethyl)-3-(2-ethyl-cyclohex-2-enyl)-thiourea]
11 | 1730 nM | CC1=C(CNC(=S)NCCO)CCC1 [Compound 27, 1-(2-Methyl-cyclopent-1-enylmethyl)-3-(2-hydroxy-ethyl)-thiourea]
12 | 253 nM | CC1=C(C)C(NC(=S)NCCO)CCC1 (centres unmarked) [Compound 31, 1-(2,3-Dimethyl-cyclohex-2-enyl)-3-(2-hydroxy-ethyl)-thiourea]

same assay, conditions: NIH-3T3 cells; ratio of maximal effect to that of standard full agonist brimonidine

Row | fraction of activity of the standard (brimonidine) attained, Alpha 2C (number in parenthesis) | SMILES
13 | (0.3) | CC1=CCCC1NC(=S)NCCO (centres unmarked) [Compound 14, 1-(2-Hydroxy-ethyl)-3-(2-methyl-cyclopent-2-enyl)-thiourea]
14 | (0.62) | CCC1=CCCCC1NC(=S)NCCO (centres unmarked) [Compound 34, 1-(2-Hydroxy-ethyl)-3-(2-ethyl-cyclohex-2-enyl)-thiourea]
15 | (0.3) | CC1=C(CNC(=S)NCCO)CCC1 [Compound 27, 1-(2-Methyl-cyclopent-1-enylmethyl)-3-(2-hydroxy-ethyl)-thiourea]
16 | (0.37) | CC1=C(C)C(NC(=S)NCCO)CCC1 (centres unmarked) [Compound 31, 1-(2,3-Dimethyl-cyclohex-2-enyl)-3-(2-hydroxy-ethyl)-thiourea]

system: rats with ligated L5 and L6 spinal nerves; assay: Alleviation of chronic pain: tactile allodynia after L5/L6 spinal nerve ligation (von Frey hairs); assay type: in vivo, rat; settings: IP dose 10 μg/kg; 30 minutes after administration; ±SEM
Source text: A model for chronic pain (in particular peripheral neuropathy such as causalgia) involves the surgical ligation of the L5 (and optionally the L6) spinal nerves on one side in experimental animals. Rats recovering from the surgery gain weight and display a level of general activity similar to that of normal rats. However, these rats develop abnormalities of the foot, wherein the hindpaw is moderately everted and the toes are held together. More importantly, the hindpaw on the side affected by the surgery appears to become sensitive to pain from low-threshold mechanical stimuli, such as that producing a faint sensation of touch in a human, within about 1 week following surgery. This sensitivity to normally non-painful touch is called “tactile allodynia” and lasts for at least two months. The response includes lifting the affected hindpaw to escape from the stimulus, licking the paw and holding it in the air for many seconds. None of these responses is normally seen in the control group.
Rats are anesthetized before surgery. The surgical site is shaved and prepared either with betadine or Novacaine. Incision is made from the thoracic vertebra XIII down toward the sacrum. Muscle tissue is separated from the spinal vertebra (left side) at the L4-S2 levels. The L6 vertebra is located and the transyerse process is carefully removed with a small rongeur to expose the L4-L6 spinal nerves. The L5 and L6 spinal nerves are isolated and tightly ligated with 6-0 silk thread. The same procedure is done on the right side as a control, except no ligation of the spinal nerves is performed. A complete hemostasis is confirmed, then the wounds are sutured. A small amount of antibiotic ointment is applied to the incised area, and the rat is transferred to the recovery plastic cage under a regulated heat-temperature lamp. On the day of the experiment, at least seven days after the surgery, typically six rats per test group are administered the test drugs by intraperitoneal (i.p.) injection or oral gavage. For i.p. injection, the compounds are formulated in approximately 10 to 50% DMSO and given in a volume of 1 ml/kg body weight.
Tactile allodynia is measured prior to and 30 minutes after drug administration using von Frey hairs that are a series of fine hairs with incremental differences in stiffness. Rats are placed in a plastic cage with a wire mesh bottom and allowed to acclimate for approximately 30 minutes. The von Frey hairs are applied perpendicularly through the mesh to the mid-plantar region of the rats' hindpaw with sufficient force to cause slight buckling and held for 6-8 seconds. The applied force has been calculated to range from 0.41 to 15.1 grams. If the paw is sharply withdrawn, it is considered a positive response. A normal animal will not respond to stimuli in this range, but a surgically ligated paw will be withdrawn in response to a 1-2 gram hair. The 50% paw withdrawal threshold is determined using the method of Dixon, […]. The post-drug threshold is compared to the pre-drug threshold and the percent reversal of tactile sensitivity is calculated based on a normal threshold of 15.1 grams. The results are expressed in per cent (%) MPE, where the MPE value reflects the percentage reversal of pain threshold to that of a normal animal (100%). Table 4 below indicates results of this test with Compounds 8, 34 and 40 of the invention, administered i.p., in intrathecal and oral doses.

Row | SMILES | % MPE
17 | CCC1=CCCCC1NC(=S)NCCO (centres unmarked) [Compound 34, 1-(2-Hydroxy-ethyl)-3-(2-ethyl-cyclohex-2-enyl)-thiourea] | 0.4 ± 1.0 % MPE

same assay, conditions: IP dose 30 μg/kg; 30 minutes after administration; ±SEM

Row | SMILES | % MPE
18 | CCC1=CCCCC1NC(=S)NCCO (centres unmarked) [Compound 34, 1-(2-Hydroxy-ethyl)-3-(2-ethyl-cyclohex-2-enyl)-thiourea] | 48 ± 6.1 % MPE

same assay, conditions: IP dose 100 μg/kg; 30 minutes after administration; ±SEM

Row | SMILES | % MPE
19 | CCC1=CCCCC1NC(=S)NCCO (centres unmarked) [Compound 34, 1-(2-Hydroxy-ethyl)-3-(2-ethyl-cyclohex-2-enyl)-thiourea] | 66 ± 11 % MPE

same assay, conditions: IP dose 300 μg/kg; 30 minutes after administration; ±SEM

Row | SMILES | % MPE
20 | CCC1=CCCCC1NC(=S)NCCO (centres unmarked) [Compound 34, 1-(2-Hydroxy-ethyl)-3-(2-ethyl-cyclohex-2-enyl)-thiourea] | 96 ± 3.7 % MPE
